Consider two molecules from patent US20230129034A1, “TREATMENT OF DISEASE WITH ESTERS OF SELECTIVE RXR AGONISTS” (Io Therapeutics, Inc., priority 2017, published 2023).

Data set [1] has as its system PPARy/RXR. Nature of the data set: Permissive heterodimer transactivation assay, CV-1 cells, 3x(rAOX/DR1)-tk-Luc. As to conditions: 20 hr, luciferase vs rosiglitazone. The class given is cell-based. The text has this:
For PPARy: CV-1 cells were transfected with 3x(rAOX/DR1)-tk-Luc reporter gene and an expression vector for PPARy. For FXR:CV-1 cells were transfected with 3x(IBABP/IRI)-tk-Luc reporter gene and vectors for FXR and RXRα. For LXR:CV-1 cells were transfected with 3x(PLTP/LXRE)-tk-Luc reporter gene with vectors for LXRα or LXRβ. For Nurr1: COS7 cells were transfected with 3xNBRE-tk-luc reporter gene and full length Nurr-1 with or without full-length RXRα plasmid. […] Luciferase data were normalized to co-transfected β-gal activity. Luciferase activity was expressed as percent of maximal activity obtained using specific agonists. Rosiglitazone (PPARy), GW4064 (FXR), T0901317 (LXR).

Data set [2] concerns the target T1, RARα (Homo sapiens, UniProt P10276).
T1 construct: made in house; host or cells: SF21 insect cells (baculovirus)
Nature of the data set: Competitive displacement of [3H]-ATRA from purified receptor. As to conditions: 5 nM [3H]-ATRA; read-out: RAR Binding Affinity Ki (nM) RARα. From the text: (§1) Standard errors (±) among independent experiments are indicated.

Data set [3] addresses T2, RARβ (Homo sapiens, UniProt P10826).
T2 construct: made in house; host or cells: SF21 insect cells (baculovirus)
Described as above. As to conditions: 5 nM [3H]-ATRA; read-out: RAR Binding Affinity Ki (nM) RARβ.
Description: as §1

Data set [4] concerns the target RARγ (Homo sapiens, UniProt P13631). The data set is described as above. As to conditions: 5 nM [3H]-ATRA; read-out: RAR Binding Affinity Ki (nM) RARγ.
Description: as §1

Data set [5] deals with oligodendrocyte differentiation and remyelination. The data set is described as follows: In vitro measures of oligodendrocyte differentiation and remyelination. Format: cell-based.
Data set [6] can be described thus: Cmax after oral doses of IRX4204. As to conditions: in vivo, 24 mg/m2; oral doses of 24 mg/m^2/day.
Data set [7] in a line: Thyroid function in human subjects treated with IRX4204. The class given is in vivo.

RARγ, sequence (P13631 whole entry, species assumed): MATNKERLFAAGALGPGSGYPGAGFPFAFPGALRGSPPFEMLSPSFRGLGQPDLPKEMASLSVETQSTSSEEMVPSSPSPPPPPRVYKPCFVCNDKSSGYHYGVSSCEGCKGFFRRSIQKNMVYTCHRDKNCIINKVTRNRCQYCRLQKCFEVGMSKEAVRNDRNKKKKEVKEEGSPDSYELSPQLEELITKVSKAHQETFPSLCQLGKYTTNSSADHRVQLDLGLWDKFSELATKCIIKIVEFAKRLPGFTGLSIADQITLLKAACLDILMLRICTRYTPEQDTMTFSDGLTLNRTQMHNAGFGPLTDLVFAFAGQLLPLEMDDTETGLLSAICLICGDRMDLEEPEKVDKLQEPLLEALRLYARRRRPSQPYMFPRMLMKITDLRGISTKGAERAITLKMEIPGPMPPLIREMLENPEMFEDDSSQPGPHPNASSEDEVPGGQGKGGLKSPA
T2 sequence (P10826 whole entry, species assumed): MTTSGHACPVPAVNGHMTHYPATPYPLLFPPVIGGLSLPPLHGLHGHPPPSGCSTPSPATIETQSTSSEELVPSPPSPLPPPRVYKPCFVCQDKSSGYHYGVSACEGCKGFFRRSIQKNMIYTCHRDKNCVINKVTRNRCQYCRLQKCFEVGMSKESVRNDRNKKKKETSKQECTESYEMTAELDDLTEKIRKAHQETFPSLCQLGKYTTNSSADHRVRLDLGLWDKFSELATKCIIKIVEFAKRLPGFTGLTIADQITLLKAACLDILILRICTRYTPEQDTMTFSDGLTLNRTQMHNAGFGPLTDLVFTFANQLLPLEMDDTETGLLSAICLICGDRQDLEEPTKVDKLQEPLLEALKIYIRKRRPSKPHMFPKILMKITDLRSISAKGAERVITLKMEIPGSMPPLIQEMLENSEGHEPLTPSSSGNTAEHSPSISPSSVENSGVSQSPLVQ
T1 sequence (P10276 whole entry, species assumed): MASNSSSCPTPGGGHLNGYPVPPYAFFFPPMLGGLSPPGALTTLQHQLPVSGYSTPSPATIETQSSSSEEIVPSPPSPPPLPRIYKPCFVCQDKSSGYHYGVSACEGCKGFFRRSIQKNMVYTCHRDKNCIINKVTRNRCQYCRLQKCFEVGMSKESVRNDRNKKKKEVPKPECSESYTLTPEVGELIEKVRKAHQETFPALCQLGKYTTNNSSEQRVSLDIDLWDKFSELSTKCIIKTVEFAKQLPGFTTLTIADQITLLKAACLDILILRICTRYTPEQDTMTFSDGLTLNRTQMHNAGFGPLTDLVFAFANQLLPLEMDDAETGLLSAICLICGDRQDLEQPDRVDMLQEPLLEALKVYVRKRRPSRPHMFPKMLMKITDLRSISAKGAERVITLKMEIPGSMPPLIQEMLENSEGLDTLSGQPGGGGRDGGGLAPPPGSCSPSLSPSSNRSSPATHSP

`CCOC(=O)/C=C(C)/C=C/[C@@H]1C[C@]1(C)c1ccc2c(c1)C(C)(C)CCC2(C)C` [IRX4204EE, 3,7-dimethyl-6(S),7(S)-methano,7-[1,1,4,4-tetramethyl-1,2,3,4-tetrahydronaphth-7-yl]2(E),4(E) heptadienoic ethyl ester]: the “activation of PPARy/RXR heterodimer” value in data set [1] is given as “very little activity”. Also, the inhibitory constant (Ki) in data set [2], in data set [3] and in data set [4] was more than 1000 nM throughout.
In the case of `CC(/C=C/[C@@H]1C[C@]1(C)c1ccc2c(c1)C(C)(C)CCC2(C)C)=C\C(=O)O` [IRX4204, 3,7-dimethyl-6(S),7(S)-methano,7-[1,1,4,4-tetramethyl-1,2,3,4-tetrahydronaphth-7-yl]2(E),4(E) heptadienoic acid], in data set [5], the “concentration with marginal activity detected” value is recorded as 1 pM. This molecule came in with a Cmax in data set [6] of 219 nM. Besides, in data set [7], the circulating thyroxine levels entry is on record as “reduction in circulating thyroxine levels” and the “plasma levels of TSH” value is “reduction in plasma levels of TSH”.
